The values that follow come from ChEMBL document CHEMBL6114946, “Development and characterization of pyridyl carboxamides as potent and highly selective Nav1.8 inhibitors” (Bioorg Med Chem Lett, 2025).

Series [1] has as its target T1, Sodium channel protein type 10 subunit alpha (Homo sapiens, UniProt Q9Y5Y9). The experiment in a line: Inhibition of Nav1.8 (unknown origin) over expressed in HEK cells assessed as reduction in deltamethrin-stimulated channel activation by FLIPR assay. The series is classed as cell-based.
Target sequence in this assay (Q9Y5Y9 whole entry): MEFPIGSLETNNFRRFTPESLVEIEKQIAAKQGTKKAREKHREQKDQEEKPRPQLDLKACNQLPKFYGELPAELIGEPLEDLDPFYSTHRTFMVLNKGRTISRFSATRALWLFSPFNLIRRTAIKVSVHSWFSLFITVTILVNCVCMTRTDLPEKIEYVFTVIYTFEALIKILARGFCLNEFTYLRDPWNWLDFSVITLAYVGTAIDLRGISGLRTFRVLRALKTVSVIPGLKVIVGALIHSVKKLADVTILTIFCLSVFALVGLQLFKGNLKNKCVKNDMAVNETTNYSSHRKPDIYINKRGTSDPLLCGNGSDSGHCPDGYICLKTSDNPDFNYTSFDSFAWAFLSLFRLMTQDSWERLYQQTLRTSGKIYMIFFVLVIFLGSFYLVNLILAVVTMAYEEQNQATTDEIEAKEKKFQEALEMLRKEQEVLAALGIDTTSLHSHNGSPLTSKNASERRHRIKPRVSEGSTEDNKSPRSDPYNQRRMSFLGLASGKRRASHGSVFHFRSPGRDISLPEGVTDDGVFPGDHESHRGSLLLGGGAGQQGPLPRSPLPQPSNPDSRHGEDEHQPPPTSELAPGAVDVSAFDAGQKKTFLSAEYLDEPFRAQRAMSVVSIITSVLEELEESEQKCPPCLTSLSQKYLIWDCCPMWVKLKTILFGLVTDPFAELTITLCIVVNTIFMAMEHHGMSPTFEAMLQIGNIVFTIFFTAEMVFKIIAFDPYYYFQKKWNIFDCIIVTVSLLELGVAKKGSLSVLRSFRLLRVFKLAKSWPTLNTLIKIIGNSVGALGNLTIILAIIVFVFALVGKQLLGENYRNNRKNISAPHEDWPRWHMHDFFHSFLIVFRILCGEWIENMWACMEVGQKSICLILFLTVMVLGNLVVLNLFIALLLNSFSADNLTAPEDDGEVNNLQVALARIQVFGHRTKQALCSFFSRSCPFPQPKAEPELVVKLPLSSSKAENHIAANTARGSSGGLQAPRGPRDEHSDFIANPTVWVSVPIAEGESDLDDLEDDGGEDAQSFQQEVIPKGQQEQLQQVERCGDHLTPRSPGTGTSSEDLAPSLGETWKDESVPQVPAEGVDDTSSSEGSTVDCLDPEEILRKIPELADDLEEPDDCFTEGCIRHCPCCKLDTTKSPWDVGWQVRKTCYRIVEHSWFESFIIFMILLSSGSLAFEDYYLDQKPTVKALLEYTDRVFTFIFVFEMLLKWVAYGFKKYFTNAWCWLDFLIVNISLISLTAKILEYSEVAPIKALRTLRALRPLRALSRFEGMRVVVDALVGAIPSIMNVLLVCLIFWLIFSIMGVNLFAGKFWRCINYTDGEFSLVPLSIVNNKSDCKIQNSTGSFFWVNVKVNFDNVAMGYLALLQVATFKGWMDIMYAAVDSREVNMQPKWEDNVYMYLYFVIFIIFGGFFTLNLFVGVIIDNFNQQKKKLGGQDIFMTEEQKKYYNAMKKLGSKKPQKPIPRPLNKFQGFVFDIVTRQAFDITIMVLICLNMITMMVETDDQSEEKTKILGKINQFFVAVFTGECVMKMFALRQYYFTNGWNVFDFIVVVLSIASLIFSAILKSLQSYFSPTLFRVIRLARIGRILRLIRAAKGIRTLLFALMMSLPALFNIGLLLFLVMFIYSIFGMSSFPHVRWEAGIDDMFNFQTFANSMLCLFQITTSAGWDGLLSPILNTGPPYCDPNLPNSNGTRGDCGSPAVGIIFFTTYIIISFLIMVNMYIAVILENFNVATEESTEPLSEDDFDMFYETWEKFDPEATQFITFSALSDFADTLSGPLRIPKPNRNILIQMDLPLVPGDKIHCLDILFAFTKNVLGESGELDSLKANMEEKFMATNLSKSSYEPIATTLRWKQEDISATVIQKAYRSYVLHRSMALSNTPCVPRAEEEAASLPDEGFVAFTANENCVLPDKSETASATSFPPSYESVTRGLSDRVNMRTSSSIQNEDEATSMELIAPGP
Series [2] concerns the target T1, Sodium channel protein type 10 subunit alpha. The experiment in a line: Inhibition of Nav1.8 (unknown origin) at 10 uM by Ionflux high-throughput automated patch method.
Target sequence in this assay (Q9Y5Y9 whole entry, looked up): as the sequence (Q9Y5Y9 whole entry) above
A short description of series [3]: Kinetic solubility of the compound in pH 7.4 phosphate buffered saline measured after 2 hrs by LC/MS analysis. Particulars: read-out: Kinetic_solubility. The series is classed as physicochemical.
The target of series [4] is T1, Sodium channel protein type 10 subunit alpha. The experiment in a line: Inhibition of human Nav1.8 with resting membrane potential at half inactivated state by PatchXpress high-throughput electrophysiology method.
Target sequence in this assay (Q9Y5Y9 whole entry): as above
Series [5] is described as follows: Clearance in rat at 1 mg/kg. The note with it: in vivo. The series is classed as ADME, organism-based.
For series [6], the target named is Sodium channel protein type 10 subunit alpha (Mus musculus, UniProt Q6QIY3). The experiment in a line: Inhibition of mouse Nav1.8 with resting membrane potential at half inactivated state by PatchXpress high-throughput electrophysiology method.
Series [7] has as its target Voltage-gated inwardly rectifying potassium channel KCNH2 (Homo sapiens, UniProt Q12809). The experiment in a line: Inhibition of human ERG. Type of series: toxicity.
The nature of series [8]: Protein binding in human plasma assessed as unbound fraction. Type of series: ADME, cell-free.
A short description of series [9]: Stability in human liver microsomes assessed as parent compound remaining measured after 60 mins. The series is classed as ADME, Microsome. The note with it: read-out: Stability. A general note: Liver microsomes are vesicles of endoplasmic reticulum, rich in cytochrome P450 enzymes.
A further series deals with Cytochrome P450 3A4 (Homo sapiens, UniProt P08684). Nature of the series: Inhibition of CYP3A4 (unknown origin). Type of series: ADME.
Another series addresses T2, Cytochrome P450 1A2 (Homo sapiens, UniProt P05177).
T2 sequence (P05177 whole entry): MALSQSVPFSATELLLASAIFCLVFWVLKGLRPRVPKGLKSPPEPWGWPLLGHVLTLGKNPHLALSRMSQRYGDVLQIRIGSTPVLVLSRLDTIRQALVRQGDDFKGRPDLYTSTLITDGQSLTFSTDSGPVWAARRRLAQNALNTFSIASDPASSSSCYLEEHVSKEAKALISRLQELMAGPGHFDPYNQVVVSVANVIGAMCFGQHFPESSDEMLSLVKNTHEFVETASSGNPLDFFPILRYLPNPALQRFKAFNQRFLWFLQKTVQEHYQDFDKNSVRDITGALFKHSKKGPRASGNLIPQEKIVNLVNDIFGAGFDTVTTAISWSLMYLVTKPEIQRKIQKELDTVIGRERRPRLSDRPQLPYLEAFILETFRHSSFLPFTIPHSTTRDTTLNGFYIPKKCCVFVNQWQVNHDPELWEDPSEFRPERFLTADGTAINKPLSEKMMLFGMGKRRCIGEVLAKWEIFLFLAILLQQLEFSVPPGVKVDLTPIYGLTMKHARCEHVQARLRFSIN
The experiment in a line: Inhibition of CYP1A2 (unknown origin). Type of series: ADME.

Series [10] is described as follows: Genotoxicity in Salmonella typhimurium by Ames test. Type of series: toxicity. The note with it: salmonella enterica subsp. enterica serovar typhimurium. Background: In the Ames test, an excess of revertant colonies over the control signals mutagenicity.

In brackets after ≈: the same amount, converted by molar mass. Activity calls are given as the source filed them. The calls are words filed in the database; no cut-off is given here.

Sequence of Voltage-gated inwardly rectifying potassium channel KCNH2 (Q12809 whole entry): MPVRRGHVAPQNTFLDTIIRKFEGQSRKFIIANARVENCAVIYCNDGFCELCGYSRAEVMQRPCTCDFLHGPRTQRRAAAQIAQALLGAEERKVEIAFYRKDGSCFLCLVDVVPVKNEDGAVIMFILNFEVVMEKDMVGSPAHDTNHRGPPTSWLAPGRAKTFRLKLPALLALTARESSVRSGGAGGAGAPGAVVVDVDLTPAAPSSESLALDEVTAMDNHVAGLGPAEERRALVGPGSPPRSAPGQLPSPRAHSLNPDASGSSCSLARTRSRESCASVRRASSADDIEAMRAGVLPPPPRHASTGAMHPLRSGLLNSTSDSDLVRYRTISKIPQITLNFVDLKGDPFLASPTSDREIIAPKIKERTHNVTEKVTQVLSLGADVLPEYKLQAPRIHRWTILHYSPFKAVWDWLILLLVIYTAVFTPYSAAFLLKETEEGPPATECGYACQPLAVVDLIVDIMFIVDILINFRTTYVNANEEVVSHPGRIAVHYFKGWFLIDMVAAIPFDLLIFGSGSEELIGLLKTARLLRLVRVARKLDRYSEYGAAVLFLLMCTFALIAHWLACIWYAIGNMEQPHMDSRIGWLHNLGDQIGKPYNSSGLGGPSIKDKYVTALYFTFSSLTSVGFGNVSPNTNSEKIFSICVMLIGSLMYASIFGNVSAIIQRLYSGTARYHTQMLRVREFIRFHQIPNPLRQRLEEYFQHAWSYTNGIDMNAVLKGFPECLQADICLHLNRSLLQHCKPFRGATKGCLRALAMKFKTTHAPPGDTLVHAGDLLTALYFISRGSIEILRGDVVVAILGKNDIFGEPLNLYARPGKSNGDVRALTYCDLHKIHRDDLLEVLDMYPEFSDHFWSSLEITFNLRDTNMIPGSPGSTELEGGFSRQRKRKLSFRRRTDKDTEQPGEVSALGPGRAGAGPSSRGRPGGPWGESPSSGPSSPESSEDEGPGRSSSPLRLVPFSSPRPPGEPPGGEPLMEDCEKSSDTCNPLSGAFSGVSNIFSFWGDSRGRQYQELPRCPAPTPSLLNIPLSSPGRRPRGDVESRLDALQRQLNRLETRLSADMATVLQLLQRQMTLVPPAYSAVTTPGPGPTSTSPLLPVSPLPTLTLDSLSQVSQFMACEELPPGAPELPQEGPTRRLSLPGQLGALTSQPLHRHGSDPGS
Sequence of Sodium channel protein type 10 subunit alpha (Mus musculus, UniProt Q6QIY3) (Q6QIY3 whole entry): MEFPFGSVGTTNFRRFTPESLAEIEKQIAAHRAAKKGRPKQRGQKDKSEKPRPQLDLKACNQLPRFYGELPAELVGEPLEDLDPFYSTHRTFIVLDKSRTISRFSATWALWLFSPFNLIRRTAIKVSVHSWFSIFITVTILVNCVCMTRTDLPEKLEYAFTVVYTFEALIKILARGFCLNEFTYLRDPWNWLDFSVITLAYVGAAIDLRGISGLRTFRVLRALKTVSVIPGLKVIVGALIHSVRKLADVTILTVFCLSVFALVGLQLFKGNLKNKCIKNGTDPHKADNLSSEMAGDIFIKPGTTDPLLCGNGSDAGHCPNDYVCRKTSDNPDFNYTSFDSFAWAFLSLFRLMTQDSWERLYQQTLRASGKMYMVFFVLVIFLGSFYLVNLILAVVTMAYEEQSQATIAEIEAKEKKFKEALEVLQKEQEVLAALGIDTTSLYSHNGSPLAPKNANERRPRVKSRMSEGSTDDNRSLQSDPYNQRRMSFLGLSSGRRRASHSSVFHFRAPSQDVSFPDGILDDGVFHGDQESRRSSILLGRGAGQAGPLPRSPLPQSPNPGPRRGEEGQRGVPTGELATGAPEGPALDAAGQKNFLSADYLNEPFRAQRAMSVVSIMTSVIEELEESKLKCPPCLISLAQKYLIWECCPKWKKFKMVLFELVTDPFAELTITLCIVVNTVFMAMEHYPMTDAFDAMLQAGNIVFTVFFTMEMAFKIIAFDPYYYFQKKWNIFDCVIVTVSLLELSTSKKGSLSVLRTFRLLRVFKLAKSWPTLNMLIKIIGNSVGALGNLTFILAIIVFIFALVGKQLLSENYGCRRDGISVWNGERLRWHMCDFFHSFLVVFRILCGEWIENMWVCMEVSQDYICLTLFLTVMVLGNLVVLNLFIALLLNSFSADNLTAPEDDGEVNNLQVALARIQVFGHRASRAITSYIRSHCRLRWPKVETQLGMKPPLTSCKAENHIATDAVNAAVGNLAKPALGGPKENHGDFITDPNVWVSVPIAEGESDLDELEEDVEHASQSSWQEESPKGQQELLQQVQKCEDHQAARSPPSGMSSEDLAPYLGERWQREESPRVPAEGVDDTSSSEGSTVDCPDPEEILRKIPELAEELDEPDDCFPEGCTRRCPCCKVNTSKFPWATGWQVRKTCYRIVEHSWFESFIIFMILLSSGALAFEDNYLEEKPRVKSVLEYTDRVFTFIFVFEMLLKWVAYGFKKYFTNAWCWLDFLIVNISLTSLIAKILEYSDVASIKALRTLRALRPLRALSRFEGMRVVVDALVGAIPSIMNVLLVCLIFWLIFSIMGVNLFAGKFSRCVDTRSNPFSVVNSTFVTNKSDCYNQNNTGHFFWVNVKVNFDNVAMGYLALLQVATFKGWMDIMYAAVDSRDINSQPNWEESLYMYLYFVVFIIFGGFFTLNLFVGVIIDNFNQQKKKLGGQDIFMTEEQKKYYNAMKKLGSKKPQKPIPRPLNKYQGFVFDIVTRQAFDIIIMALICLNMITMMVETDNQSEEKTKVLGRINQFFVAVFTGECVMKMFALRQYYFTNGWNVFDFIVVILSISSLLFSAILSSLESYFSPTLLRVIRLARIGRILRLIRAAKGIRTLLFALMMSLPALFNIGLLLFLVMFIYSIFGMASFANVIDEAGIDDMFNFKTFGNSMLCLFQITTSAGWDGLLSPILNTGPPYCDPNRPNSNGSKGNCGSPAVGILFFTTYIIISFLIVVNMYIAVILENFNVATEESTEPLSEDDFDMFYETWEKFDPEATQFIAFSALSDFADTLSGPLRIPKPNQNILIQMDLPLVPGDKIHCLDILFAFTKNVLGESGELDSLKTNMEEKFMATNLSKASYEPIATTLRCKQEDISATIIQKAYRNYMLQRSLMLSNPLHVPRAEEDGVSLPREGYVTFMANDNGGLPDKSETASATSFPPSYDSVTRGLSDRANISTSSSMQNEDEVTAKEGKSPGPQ

A word on the IC50: it is the concentration that inhibits the measured activity by half. As for `COc1cc(F)ccc1Oc1ncc(C(F)(F)F)cc1C(=O)Nc1ccc[n+]([O-])c1`, in series [1], the IC50 amounted to 1100 nM. In addition, the inhibition entry in [2] was “Active”. Also, the solubility kinetic at 2 h in series [3] was 128 µg/mL (≈ 302 µM).

With `COc1cc(F)ccc1Oc1ncc(C(F)(F)F)cc1C(=O)NCc1cccnc1N1CCOCC1`, the IC50 in [4] was more than 10000 nM. In addition, the inhibition entry in [2] is “inactive”.

By clearance is commonly meant the rate of elimination divided by the concentration. The low end stands for a low capacity for elimination, the high end for a high capacity for elimination. As a reminder, the fraction unbound is free concentration divided by total concentration. Turning to `O=C(Nc1ccc[n+]([O-])c1)c1cc(C(F)(F)F)cnc1Oc1ccc(F)cc1Cl`, the IC50 in series [4] came out at 56 nM; in [6] it was 920 nM; in series [7] it was 15000 nM. Further, the inhibition result in series [2] is “Active”. In addition, the solubility kinetic at 2 h in series [3] came out at 0.084 µg/mL (≈ 0.196 µM). This compound also came in with a clearance in series [5] of 3.3 mL/min/kg. Further, in series [8], the free fraction (fraction unbound) amounted to 0.1. Moreover, the remaining at 1 h in series [9] turned out to be 95%. Also, the INH at Cytochrome P450 3A4 and at Cytochrome P450 1A2 was more than 30 µM throughout. Also, the Activity entry in series [10] is listed as “Non-toxic”.

As for `CS(=O)(=O)c1cccc(NC(=O)c2cc(C(F)(F)F)cnc2Oc2ccc(OC(F)(F)F)cc2)c1`, the IC50 in [4] came out at 20 nM. In [2], the inhibition result is “Active”. Further, the solubility kinetic at 2 h in [3] was 4 µg/mL (≈ 7.69 µM).

For the compound `COc1cc(F)ccc1Oc1ncc(C(F)(F)F)cc1C(=O)Nc1cccnc1`, in series [1], the 50% inhibitory concentration (IC50) is 2200 nM. Moreover, in series [2], the inhibition result was “Active”.

Take `CS(=O)(=O)c1cccc(NC(=O)c2cc(C(F)(F)F)cnc2Oc2ccc(F)cc2Cl)c1`: in series [1], the IC50 turned out to be 251 nM. Besides, in series [2], the inhibition entry is “Active”.

As for `COc1cc(F)ccc1Oc1ncc(C(F)(F)F)cc1C(=O)Nc1ccncc1`, the IC50 in [1] came out at 560 nM. For the same compound, the inhibition result in series [2] is “Active”. For the same compound, the solubility kinetic at 2 h in series [3] was found to be 19 µg/mL (≈ 46.6 µM).

For the compound `CS(=O)(=O)c1cccc(NC(=O)c2cc(C(F)(F)F)cnc2Oc2ccccc2)c1`, in series [1], the IC50 worked out at 1600 nM. Also, in [2], the inhibition entry is “Active”.

Consider `COc1cc(F)ccc1Oc1ncc(C(F)(F)F)cc1C(=O)Nc1ccccn1`, for which the IC50 in series [1] was more than 5000 nM. Further, the inhibition entry in [2] is “Active”.

On to `Cc1cc(F)ccc1Oc1ncc(C(F)(F)F)cc1C(=O)Nc1cccc(S(C)(=O)=O)c1`, for which the IC50 in [1] is 120 nM. Further, the inhibition entry in series [2] is “Active”.

As for `COc1cc(F)ccc1Oc1ncc(C(F)(F)F)cc1C(=O)Nc1cccc(P(C)(C)=O)c1`, in series [1], the IC50 worked out at 3000 nM. In addition, in series [2], the inhibition result is “Active”.

Consider `COc1cc(F)ccc1Oc1ncccc1C(=O)Nc1cccc(S(C)(=O)=O)c1`, for which the IC50 in [4] was more than 10000 nM. Also, in series [2], the inhibition entry was “inactive”.

In the case of `COc1cc(F)ccc1Oc1ncc(C(F)(F)F)cc1C(=O)Nc1cccc(S(C)(=N)=O)c1` (stereo unspecified), the IC50 is 22 nM in series [1] and 23 nM in [4]. Further, the inhibition entry in [2] is “Active”. For the same compound, in series [3], the solubility kinetic at 2 h amounted to 48 µg/mL (≈ 99.3 µM).

Consider `CS(=O)(=O)c1cccc(NC(=O)c2cc(C(F)(F)F)cnc2Oc2ccc(F)cc2F)c1`, for which the half-inhibitory concentration (IC50) in [1] was found to be 87 nM. The inhibition entry in series [2] is “Active”. The solubility kinetic at 2 h in [3] is 0.3 µg/mL (≈ 0.635 µM).

As for `Cc1cc(OC(F)(F)F)ccc1Oc1ncc(C(F)(F)F)cc1C(=O)Nc1cccc(S(C)(=O)=O)c1`, the IC50 in series [4] was found to be 35 nM. Also, the inhibition entry in series [2] was “Active”. The solubility kinetic at 2 h in [3] is 1.4 µg/mL (≈ 2.62 µM).

Take `COc1cc(F)ccc1Oc1ncc(C(F)(F)F)cc1C(=O)Nc1ccncn1`: the IC50 in [1] turned out to be 240 nM. Further, the inhibition result in series [2] is “Active”.

In turn, `COc1cc(F)ccc1Oc1nc(C(F)(F)F)ncc1C(=O)Nc1cccc(S(C)(=O)=O)c1` yielded an IC50 in [4] of more than 10000 nM. The inhibition entry in [2] is “inactive”.

In turn, `COc1cc(F)ccc1Oc1nccnc1C(=O)Nc1cccc(S(C)(=O)=O)c1` displayed an IC50 in [4] of more than 10000 nM. Moreover, in series [2], the inhibition result is “inactive”.

For `COc1cc(F)ccc1Oc1cc(C(F)(F)F)ncc1C(=O)Nc1cccc(S(C)(=O)=O)c1`, the IC50 in series [1] came to 92 nM; in [4] it was 32 nM. Besides, in series [2], the inhibition result was “Active”.

For `CS(=O)(=O)c1cccc(NC(=O)c2cc(C(F)(F)F)cnc2Oc2cccnc2)c1`, the IC50 in series [1] was more than 5000 nM. In addition, the inhibition result in [2] was “Active”.

Take `CS(=O)(=O)c1cccc(NC(=O)c2cc(C(F)(F)F)cnc2Oc2c(F)cccc2F)c1`: the IC50 in [1] is more than 5000 nM. Also, in series [2], the inhibition entry was “Active”.

Consider `COc1cc(F)ccc1Oc1ncc(C(F)(F)F)cc1C(=O)Nc1cccc([S+](C)[O-])c1` (stereo unspecified), for which, in series [4], inhibition was half-maximal at 40 nM (IC50). For the same compound, in series [2], the inhibition entry was “Active”.

For the compound `COc1cc(F)ccc1Oc1ncc(C(F)(F)F)cc1C(=O)Nc1ccnnc1`, the IC50 in series [1] was found to be 540 nM; in [4], 250 nM. Further, the inhibition entry in series [2] is “Active”. Further, in series [3], the solubility kinetic at 2 h came to 70 µg/mL (≈ 171 µM).

`COc1cc(F)ccc1Oc1nc(C(F)(F)F)ccc1C(=O)Nc1cccc(S(C)(=O)=O)c1`: the IC50 in series [1] came out at 102 nM. In addition, the inhibition result in [2] is “Active”.

`CS(=O)(=O)c1cccc(NC(=O)c2cc(C(F)(F)F)cnc2Oc2cc(F)cc(F)c2)c1`: the IC50 in series [1] was found to be 1300 nM. The inhibition result in series [2] was “Active”.

Turning to `COc1cc(F)ccc1Oc1nc2ccccc2nc1C(=O)Nc1cccc(S(C)(=O)=O)c1`, the IC50 in [1] was found to be 33 nM; in [4], 36 nM. In addition, in [2], the inhibition result was “Active”.

In series [4], `COc1cc(F)ccc1Oc1ccncc1C(=O)Nc1cccc(S(C)(=O)=O)c1` showed an IC50 of more than 10000 nM. The inhibition entry in series [2] is “inactive”.

As to `CN=S(C)(=O)c1cccc(NC(=O)c2cc(C(F)(F)F)cnc2Oc2ccc(F)cc2OC)c1` (stereo unspecified), the concentration for half-maximal inhibition (IC50) was found to be 69 nM in series [1] and 68 nM in series [4]. For the same compound, the inhibition result in series [2] is “Active”. Also, in [3], the solubility kinetic at 2 h was 27 µg/mL (≈ 54.3 µM).

Compound `COCCCNC(=O)c1cc(C(F)(F)F)cnc1Oc1ccc(F)cc1OC` showed a half-maximal inhibitory concentration (IC50) in series [4] of more than 10000 nM. The inhibition entry in series [2] was “inactive”.

On to `CS(=O)(=O)c1cccc(NC(=O)c2cc(C(F)(F)F)cnc2Oc2ccc(F)cc2)c1`, for which the IC50 in series [1] was determined as 2900 nM. For the same compound, the inhibition entry in [2] was “Active”.

In turn, `COc1cc(F)ccc1Oc1ncc(C(F)(F)F)cc1C(=O)NCCN(C)C` yielded a half-inhibitory concentration (IC50) in series [4] of more than 10000 nM. The inhibition entry in [2] was “inactive”.

For `CC(C)Oc1ncc(C(F)(F)F)cc1C(=O)Nc1cccc(S(C)(=O)=O)c1`, the IC50 in series [4] is more than 10000 nM. For the same compound, the inhibition result in series [2] is “inactive”.

With `Nc1ccc[n+]([O-])c1`, the Activity result in [10] was “Non-toxic”.

As for `CS(=O)(=O)c1cccc(NC(=O)c2cc(C(F)(F)F)cnc2Oc2ccc(OC(F)(F)F)cc2Cl)c1`, the IC50 amounted to 24 nM in [1] and 15 nM in [4]. For the same compound, the inhibition entry in series [2] was “Active”. Also, in [3], the solubility kinetic at 2 h was 1.5 µg/mL (≈ 2.7 µM).
